Results on twelve molecules are retold here after US20250295659A1, “METHODS FOR TREATING TRAUMATIC BRAIN INJURY” (The Regents of the University of California, priority 2021, published 2025).

For data set [1] the following is noted: doses for FDA-approved treatments (cancer patients); cited from earlier work.
A further data set concerns the target c-Kit (Homo sapiens, UniProt P10721). Particulars: target kinase c-Kit; cell-free; read-out: IC50 (nm) in vitro; cited from earlier work.
The test system of another data set is CCI-TBI in rats. Put plainly: Elevated body swing test after CCI-TBI. In kind it is in vivo, rat. To be noted: 2 mg/kg i.p. single dose at 0 or 3 hrs post-TBI, 24 hrs after TBI, vs TBI/vehicle, P<0.05.
In data set [2] the test system is CCI-TBI in rats, ipsilateral hippocampal CA2-3 neurons. Briefly: NeuN-positive hippocampal CA2-3 neuron counts after CCI-TBI. In kind it is in vivo, rat. Particulars: 2 mg/kg single dose at 0, 3 or 6 hrs post-TBI, 24 hrs after TBI, vs TBI/vehicle, P<0.05 or P<0.01. The protocol: Brain sample preparation and immunohistochemistry. Anesthetized rats were perfused with saline followed by 4% PFA at day 1 or day 16. Brain sections (50 μm) are cut at −20° C. and incubated in 0.3% H2O2 for 10 minutes to quench endogenous peroxidase, incubated with 3% horse blocking serum for 20 minutes, and then incubated overnight in primary antibody (mouse anti-NeuN, mature neuron marker, 1:150, Millipore), then in biotinylated secondary antibody (Goat anti-mouse 1:1,000, Vector) for 0.5 h, then placed in Vectastain ABC reagent for 0.5 hr and incubated in peroxidase substrate 3, 3′-diaminobenzidine (DAB) solution for 10 min.
Stereological cell counts. The total number of NeuN-positive neurons in CA2-3 of hippocampus were quantified bilaterally using stereological methods. The NeuN-positive cell counts were performed on a microscope (Nikon E600, Nikon) using commercial software (Stereo Investigator™8.0, Microbrightfield, Inc.). Serial sections cut at 50 μm thick were collected at Bregma −2.80 mm to Bregma −4.16 mm for a total of 10 sections per brain. […] Statistical differences are determined using ANOVA followed by Dunnett's post hoc test.
Methods: One day after controlled cortical impact (CCI)-TBI, rats were anesthetized and transcardially perfused with PBS followed by 4% PFA. […] The NeuN^+ cells in ipsilateral hippocampal CA2-3 were quantified (n=4-8).

Data set [3] has as its system TBI (moderate lateral fluid percussion) in adult male Sprague-Dawley rats. Briefly: Morris Water Maze after moderate lateral fluid percussion TBI. Particulars: LFP-TBI, 2 mg/kg i.p. single dose immediately after TBI, days 12 through 16 after TBI, vs TBI/vehicle, P<0.05. In kind it is in vivo, rat.
Method: Moderate Lateral fluid percussion (LFP) was used to produce TBI in adult male Sprague-Dawley rats (weighing 300-350 grams). […] All of the following data were obtained using moderate LFP in adult rats. […] Sham and vehicle control animals received 5% DMSO in 0.9% saline. Morris Water Maze (MWM). Spatial memory was assessed using the MWM on days 12 through 16 after TBI. […] In brief rats were released from one of four starting points and allowed 120 s to find the escape platform. Rats received a total of 4 trials per day, one from each starting point, over 5 consecutive days. Behavioral assessments were performed by an individual blinded to the treatment groups. Mean latency to find the platform was calculated for each day to assess learning as well as the mean swimming speed to assess motor function. Statistical differences were determined using repeated measures ANOVA followed by Dunnett's post hoc test.

Entries after “also recorded” stand apart in the source; their conditions may differ.

Chain of c-Kit (P10721 26-976): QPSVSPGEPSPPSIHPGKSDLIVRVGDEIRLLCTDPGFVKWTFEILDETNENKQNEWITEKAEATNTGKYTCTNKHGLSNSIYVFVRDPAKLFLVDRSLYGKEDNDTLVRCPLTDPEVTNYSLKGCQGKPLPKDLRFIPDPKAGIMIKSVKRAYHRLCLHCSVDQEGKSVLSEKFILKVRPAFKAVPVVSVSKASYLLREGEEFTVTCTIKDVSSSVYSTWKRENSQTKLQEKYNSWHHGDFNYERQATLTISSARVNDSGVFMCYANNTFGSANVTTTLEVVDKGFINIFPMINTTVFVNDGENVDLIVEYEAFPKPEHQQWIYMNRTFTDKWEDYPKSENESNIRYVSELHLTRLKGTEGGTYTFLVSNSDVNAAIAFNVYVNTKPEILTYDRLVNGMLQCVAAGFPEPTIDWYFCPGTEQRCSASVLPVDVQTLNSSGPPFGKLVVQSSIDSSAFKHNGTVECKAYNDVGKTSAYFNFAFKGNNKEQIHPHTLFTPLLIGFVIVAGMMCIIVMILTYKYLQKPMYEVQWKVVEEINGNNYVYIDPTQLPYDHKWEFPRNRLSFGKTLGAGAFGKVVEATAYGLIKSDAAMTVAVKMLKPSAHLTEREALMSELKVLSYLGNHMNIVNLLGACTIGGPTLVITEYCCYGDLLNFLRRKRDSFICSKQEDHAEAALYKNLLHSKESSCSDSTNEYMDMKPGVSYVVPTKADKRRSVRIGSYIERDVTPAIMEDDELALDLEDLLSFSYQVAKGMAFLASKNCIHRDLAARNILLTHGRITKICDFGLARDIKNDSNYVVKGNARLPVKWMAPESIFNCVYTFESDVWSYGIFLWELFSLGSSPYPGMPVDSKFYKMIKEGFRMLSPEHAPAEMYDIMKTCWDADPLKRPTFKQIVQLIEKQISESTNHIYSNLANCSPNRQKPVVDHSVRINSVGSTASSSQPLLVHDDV

As to `Cc1ccc(Nc2nccc(N(C)c3ccc4c(C)n(C)nc4c3)n2)cc1S(N)(=O)=O` [Pazopanib], the “Common Side effects when used at the doses for FDA-approved treatments” value (“Common Side effects when used” below) in data set [1] is on record as “Nausea, Vomiting, Diarrhea, Thrombocytopenia disorder, Leukopenia, Neutropenic; also recorded: disorder, Alopecia, Hypertension, Fatigue, Hemorrhage, General weakness, Skin; also recorded: rash, Proteinuria, Anorexia, Weight loss, Headache disorder, Hair bleaching, Pain,; also recorded: Myalgia, Thrombotic disorder”.
Regarding `CCN(CC)CCNC(=O)c1c(C)[nH]c(/C=C2\C(=O)Nc3ccc(F)cc32)c1C` [Sunitinib], the “Common Side effects when used” value in data set [1] was “Increased risk of bleeding, Pain in extremities, Peripheral edema, Back pain,; also recorded: Hypertension, Chronic heart failure; also recorded: Stomatitis, Dyspepsia, Constipation, Dry skin, Dyschromia, Arthralgia, Headache; also recorded: disorder, Dizziness, Fever, Fatigue, General weakness, Dysgeusia, Skin rash,; also recorded: Anorexia”.
For the molecule `CNC(=O)c1cc(Oc2ccc(NC(=O)Nc3ccc(Cl)c(C(F)(F)F)c3)cc2)ccn1` [Sorafenib], the “Common Side effects when used” value in data set [1] is listed as “Hypophosphatemia, Anemia, Thrombocytopenia disorder, Leukopenia,; also recorded: Neutropenic disorder, Lymphopenia, Depression, Peripheral neuropathy,; also recorded: Hypertension, Hemorrhage, Stomatitis, Dyspepsia, Constipation, Gastrointestinal; also recorded: hemorrhage, Erectile dysfunction, Eczema, Exfoliative dermatitis, Erythema,; also recorded: Pruritus of skin, Alopecia”.
Turning to `CNC(=O)c1cc(Oc2ccc(NC(=O)Nc3ccc(Cl)c(C(F)(F)F)c3)c(F)c2)ccn1` [Regorafenib], the “Common Side effects when used” value in data set [1] is given as “Hypertension, Impaired wound healing, General weakness, Fatigue, Anorexia,; also recorded: Palmar-plantar erythrodysesthesia, Diarrhea, Stomatitis, Weight loss, Infection,; also recorded: Voice change, Hemorrhage, Fever, Skin rash, Headache disorder,; also recorded: Hypophosphatemia, Pain, Nausea, Acute abdominal pain, Anemia”.
`Cn1cc(-c2cc3c(N4CCN(c5ncc([C@@](C)(N)c6ccc(F)cc6)cn5)CC4)ncnn3c2)cn1` [Avapritinib]: in data set [1], the “Common Side effects when used” value is on record as “Edema, Nausea, Fatigue, General weakness, Acute confusion, Vomiting, Anorexia,; also recorded: Diarrhea, Hair discoloration, Eye tearing, Acute abdominal pain, Constipation, Skin; also recorded: rash, Dizziness, Anemia, Leukopenia”.
For `COc1cc(Nc2c(C#N)cnc3cc(OCCCN4CCN(C)CC4)c(OC)cc23)c(Cl)cc1Cl` [Bosutinib], the “Common Side effects when used” value in data set [1] is “Diarrhea, Nausea, Thrombocytopeniasorder, Vomiting, Kidney disease with; also recorded: reduction in GFR, Skin rash, Anemia, Fever, Fatigue, Neutropenic disorder,; also recorded: Abnormal hepatic function tests, Upper respiratory infection, Lower respiratory; also recorded: infection, General weakness, Anorexia, Pharyngitis, Back pain, Headache disorder,; also recorded: Dizziness, Dyspnea”.
Broadly, the IC50 is the concentration that gives 50% inhibition. For `COc1cc2nccc(Oc3ccc(NC(=O)NC4CC4)c(Cl)c3)c2cc1C(N)=O` [Lenvatinib], at c-Kit, the IC50 is 100 nM.
Turning to `Cc1ccc(C(=O)Nc2ccc(CN3CCN(C)CC3)c(C(F)(F)F)c2)cc1C#Cc1cnc2cccnn12` [Ponatinib], in data set [1], the “Common Side effects when used” value was “Thromboembolic disorder, Arterial thrombosis, Hypertension, Thrombocytopenic; also recorded: disorder, Neutropenic disorder, Anemia, Skin rash, Leukopenia, Acute abdominal; also recorded: pain, Fatigue, Headache disorder, Dry skin, Constipation, Arthralgia, Nausea,; also recorded: Fever, Lymphopenia, Bone marrow depression, Diarrhea, Vomiting”.
As to `CCn1c(=O)c(-c2cc(NC(=O)Nc3ccccc3)c(F)cc2Br)cc2cnc(NC)cc21` [Ripretinib], the “Common Side effects when used” value in data set [1] is listed as “Alopecia, Fatigue, Nausea, Acute abdominal pain, Constipation, Myalgia, Diarrhea,; also recorded: Anorexia, Palmar-plantar erythrodysesthesia, Vomiting, Elevated serum lipase,; also recorded: Hypophosphatemia”.
In the case of `Cc1cn(-c2cc(NC(=O)c3ccc(C)c(Nc4nccc(-c5cccnc5)n4)c3)cc(C(F)(F)F)c2)cn1` [Nilotinib], the “Common Side effects when used” value in data set [1] was “Hypocalcemia, Hyponatremia, Back pain, Hyperkalemia, Hypokalemia,; also recorded: Pancytopenia, Anemia, Thrombocytopenia disorder, Leukopenia, Neutropenic; also recorded: disorder, Elevated serum lipase, Hypertension, Prolonged QT interval, Pharyngitis,; also recorded: Constipation, Muscle spasm, Pruritus of skin, Arthralgia, Myalgia, Vertigo”.
In the case of `FC(F)(F)c1ccc(CNc2ccc(Cc3c[nH]c4ncc(Cl)cc34)cn2)cn1` [Pexidartinib], the “Common Side effects when used” value in data set [1] is on record as “Blurred vision, decreased appetite, dizziness, fever, headache, itching or skin rash,; also recorded: fast heartbeat, swelling of the feet or lower legs”.
For the molecule `Cc1nc(Nc2ncc(C(=O)Nc3c(C)cccc3Cl)s2)cc(N2CCN(CCO)CC2)n1` [Dasatinib], the “motor imbalance (biased swinging) in elevated body swing test” value in the data set with CCI-TBI in rats was “significantly mitigated motor imbalance; also recorded: mitigates motor imbalance”. Besides, the “Common Side effects when used” value in data set [1] is on record as “Fever, Fatigue, Malaise; also recorded: Infection, Hypophosphatemia, Hypocalcemia, Body fluid retention, Anemia,; also recorded: Thrombocytopenia disorder, Neutropenic disorder, Peripheral neuropathy,; also recorded: Hemorrhage, Upper respiratory infection, Pleural effusions, Stomatitis,; also recorded: Constipation, Gastrointestinal hemorrhage, Pruritus of skin, Arthralgia, Dizziness,”. In data set [2], the “survival of NeuN+ CA2-3 neurons in ipsilateral hippocampus” value is on record as “significantly promotes survival of CA2-3 neurons; also recorded: decreases CA2-3 neuronal loss”. Further, the “latency to find the platform in the Morris Water Maze (spatial memory)” value in data set [3] is recorded as “significantly improved performance; also recorded: reduces spatial memory deficits”.
